The assay deals with FP receptor (Homo sapiens (Human), UniProt P43088). The assay is described as follows: In vitro test of inhibition of human FP receptor activity (PGF2α-induced calcium flux in FP-expressing CHEM1 cells). Type of assay: cell-based. The note with it: PGF2α-induced (2 nM) calcium flux in FP-expressing CHEM1 cells; some as mean values from multiple determinations. The source says: Table 1 below lists the IC50 values from this assay for individual working examples of the invention (some as mean values from multiple independent individual determinations): […]
Chain of FP receptor (P43088 whole entry): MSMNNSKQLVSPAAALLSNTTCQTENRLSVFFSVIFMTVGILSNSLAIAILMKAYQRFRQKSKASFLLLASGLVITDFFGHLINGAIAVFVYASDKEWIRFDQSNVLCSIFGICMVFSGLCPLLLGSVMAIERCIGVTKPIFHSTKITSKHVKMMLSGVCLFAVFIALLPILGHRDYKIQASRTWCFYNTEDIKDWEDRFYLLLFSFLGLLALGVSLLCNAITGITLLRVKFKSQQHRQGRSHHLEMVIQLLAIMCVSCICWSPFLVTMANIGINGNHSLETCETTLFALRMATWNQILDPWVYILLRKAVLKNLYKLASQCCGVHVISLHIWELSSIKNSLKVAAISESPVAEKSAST
Background: A change in cytosolic calcium serves as a functional read-out for many receptors and channels.
One may read the IC50 as the point on the concentration scale where inhibition reaches its midpoint. As to `Cc1c(-c2ccccc2)nc2ccc(Br)cc2c1C(=O)NC(C)C(CC(=O)O)c1ccccc1Cl` (single isomer, unassigned; (-)) [Example 149, (−)-4-{[(6-Bromo-3-methyl-2-phenylquinolin-4-yl)carbonyl]amino}-3-(2-chlorophenyl)pentanoic Acid], the IC50 is > 1000 nM.

Take `COc1ccccc1C(CCC(=O)O)CNC(=O)c1c(C)c(-c2ccccc2)nc2ccc(Br)cc12` (single isomer, unassigned; (-)) [Example 167, (−)-5-{[(6-Bromo-3-methyl-2-phenylquinolin-4-yl)carbonyl]amino}-4-(2-methoxyphenyl)pentanoic Acid]: the IC50 came to 26 nM.

On to `Cc1c(-c2ccccc2)nc2ccc(Br)cc2c1C(=O)NCC(CCC(=O)O)c1c(F)cccc1Cl` (single isomer, unassigned; (-)) [Example 158, (−)-5-{[(6-Bromo-3-methyl-2-phenylquinolin-4-yl)carbonyl]amino}-4-(2-chloro-6-fluorophenyl)pentanoic Acid], for which the IC50 came out at 3.5 nM.

Turning to `Cc1c(-c2ccccc2)nc2ccc(Br)cc2c1C(=O)NC(C)C(CC(=O)O)c1ccccc1Cl` (racemic) [Example 148, (+/−)-4-{[(6-Bromo-3-methyl-2-phenylquinolin-4-yl)carbonyl]amino}-3-(2-chlorophenyl)pentanoic Acid], the IC50 is 42 nM.

With `Cc1c(-c2ccccc2)nc2ccc(Br)cc2c1C(=O)NCC(C(=O)O)c1ccc2c(c1)OCO2` (racemic) [Example 23, (+/−)-2-(1,3-Benzodioxol-5-yl)-3-{[(6-bromo-3-methyl-2-phenylquinolin-4-yl)carbonyl]amino}propanoic Acid], the concentration for half-maximal inhibition (IC50) worked out at 530 nM.

Regarding `COc1ccccc1C(CNC(=O)c1c(C)c(-c2ccccc2)nc2ccc(Br)cc12)C(=O)O` (single isomer, unassigned; (+)) [Example 9, (+)-3-{[(6-Bromo-3-methyl-2-phenylquinolin-4-yl)carbonyl]amino}-2-(2-methoxyphenyl)propanoic Acid], the IC50 amounted to 7.2 nM.

`Cc1c(-c2ccccc2)nc2ccc(Br)cc2c1C(=O)NCC(CC(=O)O)c1ccccc1OC(F)(F)F` (single isomer, unassigned; (+)) [Example 101, (+)-4-{[(6-Bromo-3-methyl-2-phenylquinolin-4-yl)carbonyl]amino}-3-[2-(trifluoromethoxy)phenyl]butanoic Acid]: the IC50 stood at 32 nM.

As for `Cc1c(-c2ccccc2)nc2ccc(Br)cc2c1C(=O)NCC(C)(C(=O)O)c1ccccc1` (single isomer, unassigned; (-)) [Example 14, (−)-3-{[(6-Bromo-3-methyl-2-phenylquinolin-4-yl)carbonyl]amino}-2-methyl-2-phenylpropanoic Acid], the IC50 was 53 nM.

For the compound `Cc1c(-c2ccccc2)nc2ccc(Br)cc2c1C(=O)NCC(C(=O)O)c1cccc(C(F)(F)F)c1` (racemic) [Example 22, (+/−)-3-{[(6-Bromo-3-methyl-2-phenylquinolin-4-yl)carbonyl]amino}-2-[3-(trifluoromethyl)phenyl]propanoic Acid], the IC50 amounted to 76 nM.

Regarding `Cc1c(-c2ccccc2)nc2ccc(Br)cc2c1C(=O)NCC(C)(CCC(=O)O)c1cc(F)ccc1Cl` (single isomer, unassigned; (+)) [Example 171, (+)-5-{[(6-Bromo-3-methyl-2-phenylquinolin-4-yl)carbonyl]amino}-4-(2-chloro-5-fluorophenyl)-4-methylpentanoic Acid], the IC50 was found to be 11 nM.

With `Cc1c(-c2ccccc2)nc2ccc(Br)cc2c1C(=O)NCC(CCC(=O)O)c1c(F)cccc1F` (single isomer, unassigned; (-)) [Example 182, (−)-5-{[(6-Bromo-3-methyl-2-phenylquinolin-4-yl)carbonyl]amino}-4-(2,6-difluorophenyl)pentanoic Acid], the IC50 stood at 7.2 nM.

Take `Cc1c(-c2ccccc2)nc2ccc(Br)cc2c1C(=O)NCC(CCC(=O)O)c1ccccc1OC(F)(F)F` (single isomer, unassigned; (-)) [Example 211, (−)-5-{[(6-Bromo-3-methyl-2-phenylquinolin-4-yl)carbonyl]amino}-4-[2-(trifluoromethoxy)phenyl]pentanoic Acid]: the IC50 is 1.7 nM.

Take `Cc1c(-c2ccccc2)nc2ccc(Br)cc2c1C(=O)NCC(CC(=O)O)c1cccc(Cl)c1` (single isomer, unassigned) [Example 74, 4-{[(6-Bromo-3-methyl-2-phenylquinolin-4-yl)carbonyl]amino}-3-(3-chlorophenyl)butanoic Acid]: the IC50 was 79 nM.

Take `COc1cccc(C(CNC(=O)c2c(C)c(-c3ccccc3)nc3ccc(Br)cc23)C(=O)O)c1` (racemic) [Example 44, (+/−)-3-{[(6-Bromo-3-methyl-2-phenylquinolin-4-yl)carbonyl]amino}-2-(3-methoxyphenyl)propanoic Acid]: the IC50 was determined as 190 nM.

Take `Cc1c(-c2ccccc2)nc2ccc(Br)cc2c1C(=O)NCC(c1ccccc1Cl)C(C)(C)C(=O)O` (racemic) [Example 111, (+/−)-4-{[(6-Bromo-3-methyl-2-phenylquinolin-4-yl)carbonyl]amino}-3-(2-chlorophenyl)-2,2-dimethylbutanoic Acid]: the IC50 was 89 nM.

With `Cc1c(-c2ccccc2)nc2ccc(Br)cc2c1C(=O)NCC(C)(C(=O)O)c1ccccc1` (racemic) [Example 13, (+/−)-3-{[(6-Bromo-3-methyl-2-phenylquinolin-4-yl)carbonyl]amino}-2-methyl-2-phenylpropanoic Acid], the IC50 was 94 nM.

With `O=C(O)CCC(CNC(=O)c1c(Cl)c(-c2ccccc2)nc2ccc(Br)cc12)c1c(F)ccc(F)c1Cl` (single isomer, unassigned; (-)) [Example 222, (−)-5-{[(6-Bromo-3-chloro-2-phenylquinolin-4-yl)carbonyl]amino}-4-(2-chloro-3,6-difluorophenyl)pentanoic Acid], the IC50 came to 0.96 nM.

In the case of `Cc1c(-c2ccccc2)nc2ccc(Br)cc2c1C(=O)NCC(CCC(=O)O)c1ccccc1OC(F)F` (racemic) [Example 178, (+/−)-5-{[(6-Bromo-3-methyl-2-phenylquinolin-4-yl)carbonyl]amino}-4-[2-(difluoromethoxy)phenyl]pentanoic Acid], the IC50 was found to be 6.5 nM.

As to `Cc1c(-c2ccccc2)nc2ccc(Br)cc2c1C(=O)NCC(CCC(=O)O)c1c(Cl)ccc(F)c1F` (racemic) [Example 200, (+/−)-5-{[(6-Bromo-3-methyl-2-phenylquinolin-4-yl)carbonyl]amino}-4-(6-chloro-2,3-difluorophenyl)pentanoic Acid], the IC50 turned out to be 3.6 nM.

For the compound `COc1cccc(C(CNC(=O)c2c(C)c(-c3ccccc3)nc3ccc(Br)cc23)C(=O)O)c1` (single isomer, unassigned; (-)) [Example 45, (−)-3-{[(6-Bromo-3-methyl-2-phenylquinolin-4-yl)carbonyl]amino}-2-(3-methoxyphenyl)propanoic Acid], the IC50 is 600 nM.

As for `COc1cc(F)ccc1C(C)(CNC(=O)c1c(C)c(-c2ccccc2)nc2ccc(Br)cc12)CC(=O)O` (racemic) [Example 138, (+/−)-4-{[(6-Bromo-3-methyl-2-phenylquinolin-4-yl)carbonyl]amino}-3-(4-fluoro-2-methoxyphenyl)-3-methylbutanoic Acid], the IC50 was determined as 42 nM.

As for `Cc1c(-c2ccccc2)nc2ccc(Br)cc2c1C(=O)NCC(OCC(=O)O)c1ccccc1Cl` (single isomer, unassigned; (+)) [Example 192, (+)-[2-{[(6-Bromo-3-methyl-2-phenylquinolin-4-yl)carbonyl]amino}-1-(2-chlorophenyl)ethoxy]acetic Acid], the IC50 amounted to 42 nM.

In the case of `Cc1c(-c2ccccc2)nc2ccc(Br)cc2c1C(=O)NCC(C)(C(=O)O)c1c(F)cccc1Cl` (single isomer, unassigned; (+)) [Example 61, (+)-3-{[(6-Bromo-3-methyl-2-phenylquinolin-4-yl)carbonyl]amino}-2-(2-chloro-6-fluorophenyl)-2-methylpropanoic Acid], the IC50 came to 230 nM.

With `COc1ccccc1C(CNC(=O)c1c(C)c(-c2ccccc2)nc2ccc(Br)cc12)C(=O)O` (racemic) [Example 7, (+/−)-3-{[(6-Bromo-3-methyl-2-phenylquinolin-4-yl)carbonyl]amino}-2-(2-methoxyphenyl)propanoic Acid], the IC50 stood at 24 nM.

As to `Cc1c(-c2ccccc2)nc2ccc(Br)cc2c1C(=O)NCC(C)(C(=O)O)c1cccc(C(F)(F)F)c1` (single isomer, unassigned; (-)) [Example 42, (−)-3-{[(6-Bromo-3-methyl-2-phenylquinolin-4-yl)carbonyl]amino}-2-methyl-2-[3-(trifluoromethyl)phenyl]propanoic Acid], the IC50 is 120 nM.

Turning to `Cc1c(-c2ccccc2)nc2ccc(Br)cc2c1C(=O)NCC(CCC(=O)O)c1ccccn1` (racemic) [Example 224, (+/−)-5-{[(6-Bromo-3-methyl-2-phenylquinolin-4-yl)carbonyl]amino}-4-(pyridin-2-yl)pentanoic Acid], the IC50 amounted to 100 nM.

In the case of `COc1ccccc1C(C)(CNC(=O)c1c(C)c(-c2ccccc2)nc2ccc(Br)cc12)C(=O)O` (single isomer, unassigned; (-)) [Example 59, (−)-3-{[(6-Bromo-3-methyl-2-phenylquinolin-4-yl)carbonyl]amino}-2-(2-methoxyphenyl)-2-methylpropanoic Acid], the IC50 was found to be 390 nM.

In the case of `Cc1c(-c2ccccc2)nc2ccc(Br)cc2c1C(=O)NCC(CCC(=O)O)c1ccccc1C(F)(F)F` (single isomer, unassigned; (+)) [Example 205, (+)-5-{[(6-Bromo-3-methyl-2-phenylquinolin-4-yl)carbonyl]amino}-4-[2-(trifluoromethyl)phenyl]pentanoic Acid], the IC50 was found to be 22 nM.

In the case of `Cc1c(-c2ccccc2)nc2ccc(Br)cc2c1C(=O)NCC(CCC(=O)O)c1cc(F)ccc1Cl` (single isomer, unassigned; (+)) [Example 165, (+)-5-{[(6-Bromo-3-methyl-2-phenylquinolin-4-yl)carbonyl]amino}-4-(2-chloro-5-fluorophenyl)pentanoic Acid], the IC50 is 6.6 nM.

The record behind these values is patent US11136296B2, “Substituted N-arylethyl-2-arylquinoline-4-carboxamides and use thereof” (Bayer Aktiengesellschaft, priority 2017, dated 2021).
